For assay [1], the system named is T:A (DNA, duplex) TCACCAGTCGTA/TACGACTGGTGA
The assay can be described thus: CD forward titration, ICD at 500 nm. Conditions: 100 mM NaCl; 10 mM sodium phosphate pH 7.0, 1 mM EDTA, 15 °C; apparent; non-specific binding.

Assay [2] relates to T:THF (DNA, mismatch bulge abasic, tetrahydrofuran (THF) abasic analogue at 6 of strand 1, opposite T) TCACCNGTCGTA/TACGACTGGTGA
Nature of the assay: CD forward titration, ICD at 500 nm. As to conditions: 100 mM NaCl, 10 mM sodium phosphate pH 7.0, 1 mM EDTA, 15 °C, apparent.

Assay [3] deals with dU-containing oligodeoxynucleotide 5'-TCA(dU)CGT-3' (DNA, single strand, 2'-deoxyuridine at 4) TCAUCGT. Nature of the assay: cyanoborohydride trapping, denaturing gel shift. Conditions: 100 mM Hepes-K pH 7.3, 50 mM NaB(CN)H3, 18 °C overnight; 10 μM C1; covalent trapping only.
The test system of assay [4] is T:THF (DNA, mismatch bulge abasic, tetrahydrofuran (THF) abasic analogue at 6 of strand 1, opposite T) TCACCNGTCGTA/TACGACTGGTGA
The assay can be described thus: UV melting at 260 nm. Conditions: 100 mM NaCl; 10 mM sodium phosphate pH 7.0, 1 mM EDTA; 5 μM DNA, 5 μM C1.

In assay [5] the test system is AP site-containing oligodeoxynucleotide (32P-labeled) (DNA, single strand, natural AP site (from dU by UDG) at 4) TCANCGT. The assay can be described thus: cyanoborohydride trapping, denaturing gel shift. As to conditions: 100 mM Hepes-K pH 7.3, 50 mM NaB(CN)H3, 18 °C overnight, covalent.
The test system of assay [6] is AP site-containing oligodeoxynucleotide (unlabeled) (DNA, single strand, natural AP site (from dU by UDG) at 4) TCANCGT. The assay can be described thus: ESI-MS / CID of reduced covalent complex. As to conditions: 100 mM Hepes-K pH 7.3, 50 mM NaB(CN)H3, 37 °C overnight.
The test system of assay [7] is T:A (DNA, duplex) TCACCAGTCGTA/TACGACTGGTGA
The assay can be described thus: UV melting at 260 nm. Conditions: 100 mM NaCl; 10 mM sodium phosphate pH 7.0, 1 mM EDTA; 5 μM DNA, 5 μM C1.

Assay [8] deals with T:AP (DNA, mismatch bulge abasic, natural apurinic/apyrimidinic site (from dU by UDG) at 6 of strand 1, opposite T) TCACCNGTCGTA/TACGACTGGTGA
The assay can be described thus: CD forward titration, ICD at 500 nm. Conditions: 100 mM NaCl; 10 mM sodium phosphate pH 7.0, 1 mM EDTA, 15 °C; apparent; corrected for non-specific interactions (uncorrected 44 ± 5).

Where a SMILES comes first, the peptide text is derived from it.

With `CNCC#Cc1c(F)ccc2c1/C(=C/c1[nH]ccc1OC)C(=O)N2`, the KD in assay [1] amounted to 64 ± 3 µM; in assay [2] (corrected for non-specific interactions (uncorrected 29 ± 1)), 22 ± 1 µM. For the same compound, the binding result in assay [3] was “no”; in assay [5] (10 μM C1, ~80% trapped), “yes”; in assay [6], “yes”. Besides, the values for the ΔTm in assay [4] and in assay [7] were 6.3 °C and 1 °C, respectively.

Turning to `COc1cc[nH]c1/C=C1\C(=O)Nc2ccc(F)c(C#CC3(O)CCNCC3)c21`, the KD in assay [1] was determined as 69 ± 14 µM; in assay [8], 28 ± 2 µM; in assay [2] (corrected for non-specific interactions (uncorrected 35 ± 1)) it was 28 ± 1 µM.

Take `NCCCC[C@H](NC(=O)[C@H](CCCCN)NC(=O)[C@H](Cc1c[nH]c2ccccc12)NC(=O)[C@@H](N)CCCCN)C(=O)O` (H-KWKK-OH): the binding entry in assay [5] (2 mM KWKK) was “yes”.

As a reminder, the ΔTm is the shift of the melting midpoint relative to a reference.

The record behind these values is publication PMC4929455 (2016).
